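Five concentrations, 48 hours, 96-well plates. GI50: concentration for 50% inhibition of growth. The concentration for full growth arrest is given as TGI.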
What was measured:
Assay in all cases: DTP human tumour cell line panel, 48 h
M14 melanoma = system: M14 melanoma
A549 NSCLC = system: A549 NSCLC
A498 renal = system: A498 renal
KM12 colon = system: KM12 colon
EKVX NSCLC = system: EKVX NSCLC
HCT-116 colon = system: HCT-116 colon
COLO 205 colon = system: COLO 205 colon
UO-31 renal = system: UO-31 renal
HT29 colon = system: HT29 colon
CAKI-1 renal = system: CAKI-1 renal

Cn1cc(-c2csc(-c3cn(CCN4CCOCC4)c4ccc(F)cc34)n2)c2cccnc21
GI50 (M14 melanoma): 2.09 µM | TGI (M14 melanoma): 4.89 µM | GI50 (A549 NSCLC): 3.18 µM | TGI (A549 NSCLC): 17.5 µM | GI50 (A498 renal): 5.66 µM | TGI (A498 renal): 48.5 µM | GI50 (KM12 colon): 2.85 µM | TGI (KM12 colon): 11.1 µM | GI50 (EKVX NSCLC): 2.52 µM | TGI (EKVX NSCLC): 26.6 µM | GI50 (HCT-116 colon): 3 µM | TGI (HCT-116 colon): 10.2 µM | GI50 (COLO 205 colon): 2.08 µM | TGI (COLO 205 colon): 5.23 µM | GI50 (UO-31 renal): 2.2 µM | TGI (UO-31 renal): 7.88 µM | GI50 (HT29 colon): 2.85 µM | TGI (HT29 colon): 17.7 µM

COc1ccc(-c2cc(-c3ccccc3)c(C#N)c(=O)[nH]2)cc1
TGI (M14 melanoma): > 100 µM | TGI (A549 NSCLC): > 100 µM | TGI (A498 renal): > 100 µM | TGI (KM12 colon): > 100 µM | TGI (EKVX NSCLC): > 100 µM | TGI (HCT-116 colon): > 100 µM | TGI (COLO 205 colon): > 100 µM | TGI (UO-31 renal): > 100 µM | TGI (HT29 colon): > 100 µM

O=C1Nc2ccccc2C12CC(c1ccccc1)=NN2 (configuration not stated)
GI50 (M14 melanoma): 4.9 µM | TGI (M14 melanoma): 46.3 µM | GI50 (A549 NSCLC): 5.11 µM | TGI (A549 NSCLC): > 100 µM | GI50 (A498 renal): 1.85 µM | TGI (A498 renal): 9.24 µM | GI50 (CAKI-1 renal): 7.57 µM | TGI (CAKI-1 renal): > 100 µM | GI50 (KM12 colon): 4.76 µM | TGI (KM12 colon): > 100 µM | GI50 (HCT-116 colon): 4.83 µM | TGI (HCT-116 colon): > 100 µM | GI50 (COLO 205 colon): 4.62 µM | TGI (COLO 205 colon): 25.9 µM | GI50 (UO-31 renal): 14.6 µM | TGI (UO-31 renal): > 100 µM | GI50 (HT29 colon): 3.73 µM | TGI (HT29 colon): 27.5 µM

CCC(=N\NC(N)=S)/C(C)=N/O
TGI (M14 melanoma): > 100 µM | TGI (A549 NSCLC): > 100 µM | TGI (CAKI-1 renal): > 100 µM | TGI (KM12 colon): > 100 µM | TGI (EKVX NSCLC): > 100 µM | TGI (HCT-116 colon): > 100 µM | TGI (COLO 205 colon): > 100 µM | TGI (UO-31 renal): > 100 µM | TGI (HT29 colon): > 100 µM

CN(C)CCCNC(=O)c1cc2c3ccccc3[nH]c2c2ncccc12
GI50 (A549 NSCLC): 14.1 µM | TGI (A549 NSCLC): > 100 µM | GI50 (A498 renal): 14.8 µM | TGI (A498 renal): 31.7 µM | GI50 (CAKI-1 renal): 7.83 µM | TGI (CAKI-1 renal): 56.5 µM | GI50 (KM12 colon): 19.8 µM | TGI (KM12 colon): 67.3 µM | GI50 (EKVX NSCLC): 15.3 µM | TGI (EKVX NSCLC): 85.4 µM | GI50 (HCT-116 colon): 9.46 µM | TGI (HCT-116 colon): 49.2 µM | GI50 (COLO 205 colon): 4.43 µM | TGI (COLO 205 colon): 16.6 µM | GI50 (UO-31 renal): 10.9 µM | TGI (UO-31 renal): > 100 µM | GI50 (HT29 colon): 10.3 µM | TGI (HT29 colon): 50.4 µM

O=C1C2Cc3ccccc3CN2C(=O)N1CN1CCN(CN2C(=O)C3Cc4ccccc4CN3C2=O)CC1 (configuration not stated)
TGI (A549 NSCLC): > 100 µM | TGI (A498 renal): > 100 µM | TGI (CAKI-1 renal): > 100 µM | TGI (KM12 colon): > 100 µM | TGI (EKVX NSCLC): > 100 µM | TGI (COLO 205 colon): > 100 µM | TGI (UO-31 renal): > 100 µM | TGI (HT29 colon): > 100 µM

CC(=O)OC1CCC2(C)C(CCC3C2CCC2(C)C(C4=CC(=O)OC4)CCC32)C1 (configuration not stated)
GI50 (M14 melanoma): 5.93 µM | TGI (M14 melanoma): > 100 µM | GI50 (A549 NSCLC): 3.05 µM | TGI (A549 NSCLC): 19.7 µM | GI50 (A498 renal): 1.43 µM | TGI (A498 renal): 3.4 µM | GI50 (CAKI-1 renal): 11.2 µM | TGI (CAKI-1 renal): 33.1 µM | GI50 (KM12 colon): 22.2 µM | TGI (KM12 colon): > 100 µM | GI50 (HCT-116 colon): 7.66 µM | TGI (HCT-116 colon): > 100 µM | GI50 (COLO 205 colon): 12.8 µM | TGI (COLO 205 colon): > 100 µM | GI50 (UO-31 renal): 16.1 µM | TGI (UO-31 renal): 49.9 µM | GI50 (HT29 colon): 13.1 µM | TGI (HT29 colon): 75.6 µM

Cc1nc2ccccc2c(=O)n1NC(=O)Cc1ccccc1
TGI (M14 melanoma): > 100 µM | TGI (A549 NSCLC): > 100 µM | TGI (A498 renal): > 100 µM | TGI (KM12 colon): > 100 µM | TGI (EKVX NSCLC): > 100 µM | TGI (HCT-116 colon): > 100 µM | TGI (COLO 205 colon): > 100 µM | TGI (UO-31 renal): > 100 µM | TGI (HT29 colon): > 100 µM

O=C(CCCn1ccnc1[N+](=O)[O-])NCCn1cnc([N+](=O)[O-])c1
TGI (M14 melanoma): > 100 µM | TGI (A549 NSCLC): > 100 µM | TGI (CAKI-1 renal): > 100 µM | TGI (KM12 colon): > 100 µM | TGI (EKVX NSCLC): > 100 µM | TGI (HCT-116 colon): > 100 µM | TGI (COLO 205 colon): > 100 µM | TGI (UO-31 renal): > 100 µM | TGI (HT29 colon): > 100 µM

COc1cc(C2c3cc4c(cc3C3OC(=O)C2C3CO)OCO4)cc(OC)c1OC (configuration not stated)
GI50 (M14 melanoma): 0.0333 µM | TGI (M14 melanoma): > 100 µM | GI50 (A549 NSCLC): 0.0294 µM | TGI (A549 NSCLC): > 100 µM | GI50 (A498 renal): < 0.01 µM | TGI (A498 renal): 0.0605 µM | GI50 (CAKI-1 renal): 0.0511 µM | TGI (CAKI-1 renal): > 100 µM | GI50 (KM12 colon): 0.0132 µM | TGI (KM12 colon): > 100 µM | GI50 (HCT-116 colon): 0.0191 µM | TGI (HCT-116 colon): > 100 µM | GI50 (COLO 205 colon): 0.0188 µM | TGI (COLO 205 colon): 0.0372 µM | GI50 (UO-31 renal): 0.0644 µM | TGI (UO-31 renal): > 100 µM | GI50 (HT29 colon): 0.012 µM | TGI (HT29 colon): > 100 µM

CC1SC2=NC3=C(c4ccccc4C3=O)C(c3ccc(Br)cc3)N2C1=O (configuration not stated)
TGI (M14 melanoma): > 100 µM | TGI (A549 NSCLC): > 100 µM | TGI (A498 renal): > 100 µM | TGI (CAKI-1 renal): > 100 µM | TGI (KM12 colon): > 100 µM | TGI (EKVX NSCLC): > 100 µM | TGI (COLO 205 colon): > 100 µM | TGI (UO-31 renal): > 100 µM | TGI (HT29 colon): > 100 µM

O=C1c2c(c3c4ccccc4n4c3c3c2c2ccccc2n3C/C=C\C4)C(=O)N1Cc1ccccc1
TGI (M14 melanoma): > 100 µM | TGI (A549 NSCLC): > 100 µM | TGI (A498 renal): > 100 µM | TGI (KM12 colon): > 100 µM | TGI (EKVX NSCLC): > 100 µM | TGI (HCT-116 colon): > 100 µM | TGI (COLO 205 colon): > 100 µM | TGI (UO-31 renal): > 100 µM | TGI (HT29 colon): > 100 µM

CSC(=S)N(C)NC(=O)c1cccc(C(=O)NN(C)C(=S)SC)n1
TGI (M14 melanoma): > 100 µM | TGI (A549 NSCLC): 89 µM | TGI (A498 renal): > 100 µM | TGI (KM12 colon): > 100 µM | TGI (EKVX NSCLC): > 100 µM | TGI (HCT-116 colon): > 100 µM | TGI (COLO 205 colon): > 100 µM | TGI (HT29 colon): > 100 µM

O=C(N/C(=C\c1ccc([N+](=O)[O-])cc1)c1nc2[nH]c(=S)[nH]c(=O)c2[nH]1)c1ccccc1
TGI (M14 melanoma): > 100 µM | TGI (A549 NSCLC): > 100 µM | TGI (CAKI-1 renal): > 100 µM | TGI (KM12 colon): > 100 µM | TGI (EKVX NSCLC): > 100 µM | TGI (COLO 205 colon): > 100 µM | TGI (UO-31 renal): > 100 µM | TGI (HT29 colon): > 100 µM

O=C(c1ccc(Cl)cc1)N(C(=S)N1CCN(c2ccccn2)CC1)c1ccccc1
TGI (M14 melanoma): > 100 µM | TGI (A549 NSCLC): > 100 µM | TGI (CAKI-1 renal): > 100 µM | TGI (KM12 colon): > 100 µM | TGI (HCT-116 colon): > 100 µM | TGI (COLO 205 colon): > 100 µM | TGI (UO-31 renal): > 100 µM | TGI (HT29 colon): > 100 µM

COc1ccc(CNc2nc3ccccc3nc2-c2cccs2)cc1OC
TGI (A549 NSCLC): > 100 µM | TGI (EKVX NSCLC): > 100 µM | TGI (HCT-116 colon): > 100 µM | TGI (COLO 205 colon): > 100 µM | TGI (UO-31 renal): > 100 µM | TGI (HT29 colon): > 100 µM

CC(C)O/C=C1\C(=O)C2(SCCS2)[C@H]2CCCC[C@@H]12
TGI (M14 melanoma): > 100 µM | TGI (A549 NSCLC): > 100 µM | TGI (A498 renal): 75 µM | TGI (CAKI-1 renal): > 100 µM | TGI (KM12 colon): > 100 µM | TGI (HCT-116 colon): > 100 µM | TGI (COLO 205 colon): 33.4 µM | TGI (UO-31 renal): > 100 µM

Cc1cn(C2C=CC(=O)C(C)O2)c(=O)[nH]c1=O (configuration not stated)
TGI (M14 melanoma): 29.7 µM | TGI (A549 NSCLC): > 100 µM | TGI (A498 renal): > 100 µM | TGI (CAKI-1 renal): 31.5 µM | TGI (KM12 colon): 30.1 µM | TGI (HCT-116 colon): 24.6 µM | TGI (COLO 205 colon): 32 µM | TGI (UO-31 renal): 27.7 µM | TGI (HT29 colon): 33.4 µM

CCOC(=O)Nc1nc2c(F)c(F)c(F)cc2s1
GI50 (M14 melanoma): > 100 µM | TGI (M14 melanoma): > 100 µM | GI50 (A549 NSCLC): > 100 µM | TGI (A549 NSCLC): > 100 µM | GI50 (A498 renal): 31.8 µM | TGI (A498 renal): > 100 µM | GI50 (CAKI-1 renal): > 100 µM | TGI (CAKI-1 renal): > 100 µM | GI50 (KM12 colon): > 100 µM | TGI (KM12 colon): > 100 µM | GI50 (HCT-116 colon): 58.6 µM | TGI (HCT-116 colon): > 100 µM | GI50 (COLO 205 colon): > 100 µM | TGI (COLO 205 colon): > 100 µM | GI50 (UO-31 renal): > 100 µM | TGI (UO-31 renal): > 100 µM | GI50 (HT29 colon): > 100 µM | TGI (HT29 colon): > 100 µM

Reference: PubChem BioAssay (NCI)
